Reference: patent US20240207258A1, “HETEROCYCLIC PDK1 INHIBITORS FOR USE TO TREAT CANCER” (Viracta Therapeutics, Inc., priority 2015, published 2024)

Assays:
[1] = tested on: panel of 270 different human kinases; assay: Kinase selectivity panel (Upstate/Millipore); type: biochemical; conditions: 10 μM, panel of 270 kinases
Experimental: The selectivity of Compound 1 and Compound 2 was evaluated in a panel of 270 different human kinases offered by Upstate (now Millipore).

MV4-11 tumor xenografts = assay: MV4-11 tumor xenograft efficacy; type: in vivo, mice
From the text: MV4-11 cells were propagated in vitro and implanted subcutaneous into the right flank of 9-week old female NCr nu/nu mice as described in Example 7. The animals were fed ad libitum water (reverse osmosis, 1 ppm Cl), and NIH 31 Modified and Irradiated Lab Diet® consisting of 18.0% crude protein, 5.0% crude fat, and 5.0% crude fiber. Fourteen days after tumor implantation, designated as Day 1 of the study, the animals were sorted into seven groups each consisting of ten mice with individual tumor volumes of 108 to 288 mm^3 and group mean tumor volumes (MTV) of 162 to 165 mm^3. On Day 1 of the study, dosing by oral gavage was initiated as follows: The dosing volume was 0.100 mL per 20 grams of body weight (5 mL/kg), and was scaled to the body weight of each individual animal. Group 1 mice received vehicle and served as the control group. Groups 2-4 received Compound 1 at 5, 11, and 25 mg/kg, respectively, qd×21. Groups 5-7 received Compound 2 at 5, 11, and 25 mg/kg, respectively, qd×21. Dosing solutions were prepared weekly by dissolving the appropriate amount of powder in 1% […] (DMA) in Labrasol® (vehicle) to yield a 5 mg/mL solution. The 5 mg/mL solution provided the 25 mg/kg dosage in a dosing volume of 5 mL/kg. An aliquot of the 5 mg/mL solution was diluted in the vehicle to concentrations of 2.2 and 1 mg/mL which provided the 11 and 5 mg/kg dosages, respectively, in a dosing volume of 5 mL/kg.
Tumors were measured using calipers twice per week. The study endpoint was defined as a mean tumor volume of 2000 mm^3 in the control group or 22 days, whichever came first and the study was terminated on Day 22. Animals were weighed daily on Days 1-5, then twice per week until the completion of the study. The mice were observed frequently for overt signs of any adverse, treatment related (TR) side effects, and clinical signs were recorded when observed. Individual body weight loss was monitored as per protocol and any animal whose weight exceeded the limits for acceptable body weight loss was euthanized. Group mean body weight loss also was monitored as per protocol. Dosing was to be suspended in any group whose weight exceeded the limits for acceptable mean body weight loss. If mean body weight recovered, then dosing may be resumed in that group, but at a lower dosage or less frequent dosing schedule. Acceptable toxicity was defined as a group mean body weight loss of less than 20% during the study and not more than 10% treatment-related (TR) deaths. Any dosing regimen resulting in greater toxicity was considered above the maximum tolerated dose (MTD). A death was classified as TR if attributable to treatment side effects as evidenced by clinical signs and/or necropsy, or may also be classified as TR if due to unknown causes during the dosing period or within 14 days of the last dose. A death was classified as non-treatment-related (NTR) if there was no evidence that death was related to treatment side effects.
Treatment efficacy was determined using data from the final day. The MTV (n) (the median tumor volume for the number of animals, n) on the final day was determined for each group. Group 1 mice that received vehicle p.o. qd×21 served as the control group for analysis of tumor growth inhibition (TGI) determined according to the formula % TGI=[1−(MTVdrug-treated/MTVcontrol)]×100. Treatment efficacy was also determined from the incidence and magnitude of regression responses observed during the study. Treatment may cause partial regression (PR) or complete regression (CR) of the tumor in an animal. In a PR response, the tumor volume was 50% or less of its Day 1 volume for three consecutive measurements during the course of the study, and equal to or greater than 13.5 mm^3 for one or more of these three measurements. In a CR response, the tumor volume was less than 13.5 mm^3 for three consecutive measurements during the course of the study.

Molm-13 = assay: MTS cell proliferation assay, Molm-13; type: cell-based; conditions: Homo sapiens; Molm-13, 72 hr
Experimental: Cell proliferation was measured using the CellTiter 96 Aqueous Non-Radioactive Cell Proliferation Assay (Promega). The CellTiter 96® AQueous Assay is composed of solutions of a tetrazolium compound [3-(4,5-dimethylthiazol-2-yl)-5-(3-carboxymethoxyphenyl)-2-(4-sulfophenyl)-2H-tetrazolium, inner salt; MTS] and an electron coupling reagent (phenazine methosulfate) PMS. MTS is bioreduced by cells into a formazan product that is soluble in tissue culture medium. The absorbance of the formazan product at 490 nm can be measured directly from assay plates without additional processing. The quantity of formazan product as measured by the amount of 490 nm absorbance is directly proportional to the number of living cells in culture. Cells were seeded into 96-well or 384-well clear plates in a volume of 200 μL (96-well) or 50 μL (384-well) at optimized densities ranging from 1,000 to 40,000 cells per well for 96-well plates or 1,200 to 25,000 cells per well for 384-well plates depending on cell-line. After 4-6 hr recovery, serially diluted compounds in DMSO were added to the cells using (0.1% v/v final DMSO concentration). Cells were then grown at 37° C. in a humidified incubator with 5% CO2 for 72 hr. A 20:1 [3-(4,5-dimethylthiazol-2-yl)-5-(3-carboxymethoxyphenyl)-2-(4-sulfophenyl)-2H-tetrazolium](MTS):phenazine methosulfate (PMS) solution in DPBS was made immediately before use, added to each well, and cells were incubated for 1.5 hr at 37° C. The absorbance at 490 nm was then measured using a platereader. Absorbance values were normalized as percent of control (cells incubated in the presence of 0.1% v/v DMSO). Sigmoidal dose-response curves were plotted using log(inhibitor) vs. response—Variable slope (four parameters) model with a top value constrained to 100% (GraphPad Prism version 6.00 for Windows, GraphPad Software, La Jolla California USA). […] Curves for compounds that reached a plateau were matched exactly to the measurement points. […] To determine potential of compounds of the invention to affect viability of hematological cancers, cell lines representing various tumor types were selected and tested. Human cell lines tested were: MOLM-13 (acute myeloid leukemia (AML)), MV4-11 (AML), U-2932 (ABC-diffuse large B cell lymphoma), U-937 (histiocytic lymphoma), U-266 (multiple myeloma), RPMI-8226 (multiple myeloma), CMK (megakaryoblastic cell line), SU-DHL-4 (GCB-diffuse large B cell lymphoma), KG1 (AML), Mec-1 (chronic B-cell leukemia), MOLM-16 (AML), Jeko (B-cell lymphoma), WSU-DLCL2 (B-cell lymphoma), JJN3 (plasma cell leukemia), SU-DHL-6 (GCB-diffuse large B cell lymphoma), and Z-138 (mantle cell lymphoma). In addition, two murine cell lines were tested: A20 […].

C[C@H](NC(=O)c1nc(C#N)cnc1NCc1ccc(-c2cnc3[nH]nc(N)c3n2)cc1)c1ccc(F)c(F)c1 [Compound 1, 3-[4-(3-Amino-1H-pyrazolo[3,4-b]pyrazin-5-yl)-benzylamino]-6-cyano-pyrazine-2-carboxylic acid [1-(3,4-difluoro-phenyl)-ethyl]-amide]
number of kinases with inhibition greater than or equal to 90% (including PDK1) [1]: 18 | MTV (median tumor volume) on Day 22 (MV4-11 tumor xenografts; 5 mg/kg p.o. qd×21): 446 mm^3 | TGI (tumor growth inhibition) (MV4-11 tumor xenografts; 5 mg/kg p.o. qd×21, Day 22): 69% | regression responses (PRs) (MV4-11 tumor xenografts; 5 mg/kg p.o. qd×21, ten mice): no regression responses | MTV (median tumor volume) on Day 22 (MV4-11 tumor xenografts; 11 mg/kg p.o. qd×21): 288 mm^3 | TGI (tumor growth inhibition) (MV4-11 tumor xenografts; 11 mg/kg p.o. qd×21, Day 22): 80% | regression responses (PRs) (MV4-11 tumor xenografts; 11 mg/kg p.o. qd×21, ten mice): no regression responses | MTV (median tumor volume) on Day 22 (MV4-11 tumor xenografts; 25 mg/kg p.o. qd×21): 63 mm^3 | TGI (tumor growth inhibition) (MV4-11 tumor xenografts; 25 mg/kg p.o. qd×21, Day 22): 96% | regression responses (PRs) (MV4-11 tumor xenografts; 25 mg/kg p.o. qd×21, ten mice): seven | EC50 (Molm-13): 6 nM

CNc1n[nH]c2ncc(-c3ccc(CNc4ncc(C#N)nc4C(=O)N[C@@H](C)c4ccc(F)c(F)c4)cc3)cc12 [Compound 2, 6-Cyano-3-[4-(3-methylamino-1H-pyrazolo[3,4-b]pyridin-5-yl)-benzylamino]-pyrazine-2-carboxylic acid [1-(3,4-difluoro-phenyl)-ethyl]-amide]
number of kinases with inhibition greater than or equal to 90% (including PDK1) [1]: 20 | MTV (median tumor volume) on Day 22 (MV4-11 tumor xenografts; 5 mg/kg p.o. qd×21): 320 mm^3 | TGI (tumor growth inhibition) (MV4-11 tumor xenografts; 5 mg/kg p.o. qd×21, Day 22): 77% | regression responses (PRs) (MV4-11 tumor xenografts; 5 mg/kg p.o. qd×21, ten mice): no regression responses | MTV (median tumor volume) on Day 22 (MV4-11 tumor xenografts; 11 mg/kg p.o. qd×21): 108 mm^3 | TGI (tumor growth inhibition) (MV4-11 tumor xenografts; 11 mg/kg p.o. qd×21, Day 22): 92% | regression responses (PRs) (MV4-11 tumor xenografts; 11 mg/kg p.o. qd×21, ten mice): three | MTV (median tumor volume) on Day 22 (MV4-11 tumor xenografts; 25 mg/kg p.o. qd×21): 40 mm^3 | TGI (tumor growth inhibition) (MV4-11 tumor xenografts; 25 mg/kg p.o. qd×21, Day 22): 97% | regression responses (PRs) (MV4-11 tumor xenografts; 25 mg/kg p.o. qd×21, ten mice): eight | EC50 (Molm-13): 3 nM
